Reference: patent US7745417B2, “Nucleosides or nucleotides having novel unnatural bases and use thereof” (RIKEN, priority 2002, dated 2010)

Assays:
T7 RNA polymerase [1] = target: T1, T7 RNA polymerase (Escherichia phage T7, UniProt P00573); details: T7 transcription
Procedure: (§1) The reaction composition of T7 transcription may be the same as described in Ohtsuki et al., 2001. Details are as follows: 40 mM Tris-HCl (pH 8.0), 5 mM DTT, 24 mM MgCl2, 2 mM spermidine, 0.01% TritonX-100, 10 mM GMP, 1 mM NTPs, 0-0.25 mM 5IyTP, 0.2 μl/μl template DNA, and 2.5 U/μl T7 RNA polymerase (TaKaRa). After enzymatic reaction at 37° C. for 6 hours, each reaction product was purified by electrophoresis on an 8% polyacrylamide-7M urea gel.
When T7 transcription reaction is performed in the presence of [α-^32P]ATP or [α-^32P]GTP, a nucleoside 3′-phosphate (Np) 5′-terminal to A or G is labeled with ^32P. Each gel-purified RNA was completely digested into Np by RNase T2 (Sigma). If 5Iy is introduced at residue 84 or 92, the nucleoside 3′-phosphate of 5Iy (5IyTp) is labeled with ^32P via [α-^32P]GTP, while if 5Iy is introduced at residue 87, 5IyTp is labeled via [α-^32P]ATP (FIG. 5, FIG. 6-b). For base composition analysis of 5Iy-containing RNAs, each of the completely digested products was separated by 2D-TLC and determined for each nucleotide content.
More specifically, to completely digest RNA, 0.75 μl RNase T2 solution (5 units/μl; 100 mM NaOAc pH 4.5, 10% glycerol) was added to 4.25 μl aqueous solution containing the labeled RNA and a 0.25 OD E. coli-derived tRNA mixture (Sigma), followed by overnight enzymatic reaction at 37° C. A part of the reaction solution was spotted onto a 10 cm×10 cm TLC plate (Funacell SF; Funakoshi Co., Ltd., Japan) and developed in two dimensions. Developing solutions for the first and second dimensions are isobutyric acid/ammonia/water (66:1:33 by volume) and 2-propanol/hydrochloric acid/water (70:15:15 by volume), respectively. The developed spots were detected and quantified using a bioimaging analyzer (BAS2500, Fuji Photo Film Co., Ltd., Japan).
Each value was calculated from the following equation. The theoretical numbers of nucleotides are in parentheses.

T7 RNA polymerase [2] = target: T1, T7 RNA polymerase; details: 0.25 mM triphosphate; product of 100 nucleotides
Procedure: as §1

T7 RNA polymerase [3] = target: T1, T7 RNA polymerase; details: for incorporation into RNA opposite s in the template: 1 mM, in competition with natural NTPs; for efficiency of transcription reaction: full-length 17-mer RNA, transcription using natural base pairing set to 100%; for misincorporation opposite natural nucleotides in the template: s-free control template
Procedure: The T7 transcription reaction was performed on 20 μl scale. The composition of T7 transcription is as follows: 40 mM Tris-HCl (pH 8.0), 5 mM DTT, 8 mM MgCl2, 2 mM spermidine, 0.01% TritonX-100, 10 mM GMP, 1 mM NTPs (N=A, G, C, U, Bio-yTP, Bio^2-yTP), 2 μCi [α-^32P]ATP, 0.5 μM double-stranded DNA, and 2.5 U/μl T7 RNA polymerase (TaKaRa) [Ohtsuki et al., 2001]. After enzymatic reaction at 37° C. for 3 hours, each reaction solution was supplemented with an equal volume of a 10M urea-containing TPE solution and warmed at 75° C. for 3 minutes to stop the reaction. Aliquot parts of the reaction solutions were then electrophoresed on a 20% polyacrylamide-7M urea gel and the [α-^32P]ATP-labeled reaction products were analyzed with a bioimaging analyzer (BAS2500, Fuji Photo Film Co., Ltd., Japan).

B-Raf RBD (GST-RBD) = B-Raf RBD (GST-RBD) (Homo sapiens, UniProt P15056 P15056:149-226); assay: filter; 2 nM RNA; binds B-Raf RBD but does not inhibit B-Raf RBD/Ras interaction; details: tags: GST fusion, expressed in E. coli; label: 32P 5'-end; pseudoknot (estimated)
Chain of B-Raf RBD (GST-RBD) (P15056 149-226, one chain of several): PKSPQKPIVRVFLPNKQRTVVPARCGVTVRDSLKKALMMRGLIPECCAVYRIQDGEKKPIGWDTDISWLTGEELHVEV
Procedure: The binding efficiency (Binding %) to various concentrations of protein was determined for each RNA aptamer (2 nM) by a filter binding method and plotted in the figure.

Raf-1 RBD (GST-RBD) [4] = target: T2, Raf-1 RBD (GST-RBD) (Homo sapiens, UniProt P04049 P04049:51-131); assay: EMSA; 1 XL binds 2 GST-RBD; higher activity than 9Ax2; details: tags: GST fusion, expressed in E. coli; 2 per XL dimer), stated; label: 32P 5'-end
Procedure: (§2) The product (XL) obtained by crosslinking reaction an equal concentration (0.1 µM) mixture of 9A(5Iy87) and Raf-1 RBD was purified from a gel and analyzed for binding between XL and GSTRBD by gel shift assay. As a control of RNA 9A dimer, RNA 9A molecules were also linked in tandem to newly prepare RNA 9A×2 (200 nucleotides in total length), followed by gel shift assay. RNA 9A×2 is an RNA molecule of 200 nucleotides in total length that has two essential regions of RNA 9A (residues 1-80) in its molecule. It was prepared by transcription reaction using T7 RNA polymerase (Epicentre) and subcloned into vector pCR®II-TOPO (Invitrogen).
(§3) Electrophoresis was performed at room temperature and at a constant voltage (150 V) for about 2 hours (gel size: 16 cm×16 cm×1 mm). The composition of electrophoresis buffer is as follows: 12.5 mM Tris and 125 mM Glycine. Each electrophoresed gel was dried using a gel dryer and analyzed with a bioimaging analyzer (BAS2500, Fuji Photo Film Co., Ltd., Japan).

Raf-1 RBD (GST-RBD) [5] = target: T2, Raf-1 RBD (GST-RBD); assay: EMSA; binding to 2 GST-RBD lower than XL; details: tags: GST fusion, expressed in E. coli; 2 per XL dimer), stated; label: 32P 5'-end
Procedure: as §2, §3

Raf-1 RBD (GST-RBD) [6] = target: T2, Raf-1 RBD (GST-RBD); assay: EMSA; no shift even at increased GST-RBD; details: tags: GST fusion, expressed in E. coli; 2 per XL dimer), stated; label: 32P 5'-end

T1 sequence (P00573 whole entry): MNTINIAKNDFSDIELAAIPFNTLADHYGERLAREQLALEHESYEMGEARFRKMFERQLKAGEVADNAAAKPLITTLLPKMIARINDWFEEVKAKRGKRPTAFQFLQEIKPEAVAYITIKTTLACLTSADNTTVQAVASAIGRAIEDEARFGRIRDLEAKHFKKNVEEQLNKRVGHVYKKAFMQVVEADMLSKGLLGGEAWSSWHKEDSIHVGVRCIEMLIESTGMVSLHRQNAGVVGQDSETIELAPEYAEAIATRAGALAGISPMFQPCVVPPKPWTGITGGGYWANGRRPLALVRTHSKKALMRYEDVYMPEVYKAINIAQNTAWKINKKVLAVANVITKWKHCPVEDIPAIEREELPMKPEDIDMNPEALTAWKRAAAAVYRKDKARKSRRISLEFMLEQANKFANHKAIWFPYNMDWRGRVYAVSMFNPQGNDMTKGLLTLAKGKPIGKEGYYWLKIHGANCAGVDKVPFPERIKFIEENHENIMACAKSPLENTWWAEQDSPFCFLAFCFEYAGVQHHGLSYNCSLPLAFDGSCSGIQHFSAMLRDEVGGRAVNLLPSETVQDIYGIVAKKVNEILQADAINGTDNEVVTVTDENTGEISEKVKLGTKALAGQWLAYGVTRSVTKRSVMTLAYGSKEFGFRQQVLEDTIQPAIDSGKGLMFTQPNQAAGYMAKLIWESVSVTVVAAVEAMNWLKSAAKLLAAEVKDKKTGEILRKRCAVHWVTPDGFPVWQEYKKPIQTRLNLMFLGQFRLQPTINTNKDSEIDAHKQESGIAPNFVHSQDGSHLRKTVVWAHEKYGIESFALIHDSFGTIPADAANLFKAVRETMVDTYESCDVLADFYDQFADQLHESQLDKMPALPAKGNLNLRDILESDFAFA

O=c1[nH]cc(I)cc1[C@@H]1O[C@H](COP(=O)(O)OP(=O)(O)OP(=O)(O)O)[C@@H](O)[C@H]1O [5IyTP, 3-(β-D-ribofuranosyl)-5-iodopyridin-2(1H)-one 5′-triphosphate]
misincorporated 5Iy, share of the total (T7 RNA polymerase [1]): less than 0.5%
selectivity of incorporation opposite s in the template (T7 RNA polymerase [1]; s-containing template): ≥ 97%
progress of transcription reaction with the unnatural triphosphate (T7 RNA polymerase [2]): proceeded efficiently

O=c1[nH]cc(C#Cc2ccccc2)cc1[C@@H]1O[C@H](COP(=O)(O)OP(=O)(O)OP(=O)(O)O)[C@@H](O)[C@H]1O [3-(β-D-ribofuranosyl)-5-(2-phenylethynyl)-pyridin-2(1H)-one 5′-triphosphate]
progress of transcription reaction with the unnatural triphosphate (T7 RNA polymerase [2]): confirmed to proceed

Biotinylated 5-(3-amino-1-propenyl)-3-(β-D -ribofuranosyl)-2-pyridone 5′-triphosphate [Bio-yTP]
incorporation into RNA opposite s in the template (T7 RNA polymerase [3]): competitively and selectively incorporated opposite s in the template
efficiency of transcription reaction (T7 RNA polymerase [3]): about 50%
misincorporation opposite natural nucleotides in the template (T7 RNA polymerase [3]): almost no misincorporation

Biotinylated 5-(3-amino-1-propynyl)-3-(β-D-ribofuranosyl)-2-pyridone 5′-triphosphate [Bio^2-yTP]
incorporation into RNA opposite s in the template (T7 RNA polymerase [3]): competitively and selectively incorporated opposite s in the template
efficiency of transcription reaction (T7 RNA polymerase [3]): about 50%
misincorporation opposite natural nucleotides in the template (T7 RNA polymerase [3]): no misincorporation

B1: RNA 9A (ssRNA)
RNA: GGGAGUGGAGGAAUUCAUCGAGGCAUAUGUCGACUCCGUCUUCCUUCAAACCAGUUAUAAAUUGGUUUUAGCAUAUGCCUUAGCGACAGCAAGCUUCUGC
binding result (B-Raf RBD (GST-RBD)): binds

B2: RNA XL (UV-crosslinked dimer of 9A(5Iy87)) (ssRNA)
RNA 1: GGGAGUGGAGGAAUUCAUCGAGGCAUAUGUCGACUCCGUCUUCCUUCAAACCAGUUAUAAAUUGGUUUUAGCAUAUGCCUUAGCGACAGCAAGCUUCUGC
RNA 2: GGGAGUGGAGGAAUUCAUCGAGGCAUAUGUCGACUCCGUCUUCCUUCAAACCAGUUAUAAAUUGGUUUUAGCAUAUGCCUUAGCGACAGCAAGCUUCUGC
modifications: 5Iy at position 87, UV-crosslinked dimer
binding result (Raf-1 RBD (GST-RBD) [4]): binds

B3: RNA 9Ax2 (tandem 9A, 200 nt) (ssRNA)
RNA: GGGAGUGGAGGAAUUCAUCGAGGCAUAUGUCGACUCCGUCUUCCUUCAAACCAGUUAUAAAUUGGUUUUAGCAUAUGCCUUAGCGACAGCAAGCUUCUGCGGGAGUGGAGGAAUUCAUCGAGGCAUAUGUCGACUCCGUCUUCCUUCAAACCAGUUAUAAAUUGGUUUUAGCAUAUGCCUUAGCGACAGCAAGCUUCUGC
binding result (Raf-1 RBD (GST-RBD) [5]): binds

B4: RNA OC (ssRNA)
RNA: GGGAGUGGAGGAAUUCAUCGAGGCAUCUGGGAACCCUAUCUUGCUUUUGGUAGCUGUAUUCACCUGUAACAGCAUAUGCCUUAGCGACAGCAAGCUUCUGC
binding result (Raf-1 RBD (GST-RBD) [6]): no binding
